Results from patent US20090227556A1, “RECEPTOR TYROSINE KINASE INHIBITORS COMPRISING PYRIDINE AND PYRIMIDINE DERIVATIVES” (Eisai R&D Management Co., Ltd., priority 2008, published 2009).

Legend:
[1] = tested on: Human umbilical vein endothelial cells (HUVECs); experiment: Growth inhibitory activity on human umbilical vein endothelial cells stimulated by VEGF; type: cell-based; conditions: HUVEC, 72 h, 3 days, Cell Counting Kit-8
Experimental: Human umbilical vein endothelial cells (HUVECs) were isolated according to the reported method (Shin-seikagaku jikken kouza “saibou baiyou gijutu (Cell culturing techniques)” p. 197-202) and incubated to confluence using an EGM-2 culture medium (obtained from Sanko Junyaku Co., Ltd.) in a 5% CO2 incubator (37° C.). The HUVECs were collected by a trypsin-EDTA treatment and washed with a culture medium (2% fetal bovine serum-supplemented Human endothelial SFM basal medium, obtained from Invitrogen Corp.), followed by suspending them in the medium to count the cell number. By diluting it with the medium, a 2×10^4 cells/ml cell suspension was prepared. The cell suspension was dispensed into a 96-well plate (obtained from FALCON) by 100 μl each, and incubated at 37° C. in a 5% CO2 incubator overnight. After the incubation, 50 μl of the test substance diluted with the medium was added to each well, and 50 μL of 80 ng/ml human recombinant VEGF (obtained from R&D systems, Inc.) diluted with the medium was added and further incubated for 3 days in the 5% CO2 incubator (37° C.). After the incubation, 20 μl of Cell Counting Kit-8 (obtained from DOJINDO Laboratories) was added to each well, which were incubated for about 2 hours in the 5% CO2 incubator (37° C.). After the incubation, the absorbance of the each well was measured using a plate reader MTP-500 (Corona Electric Co., Ltd) with a measurement wavelength of 450 nm and a control wavelength of 660 nm. A ratio of absorbance (%) of each well with the test substance against the wells without the test substance was determined, and based on this ratio, the concentration of the test substance required to inhibit 50% of cell proliferation (IC50) was determined and the results are shown in Table 2.

KIT = biological target: T1, KIT (Homo sapiens, UniProt P10721); experiment: Inhibitory action on KIT (ELISA); type: biochemical; conditions: recombinant human kinase
T1 construct: purchased Carna Biosciences Inc. 08-156
T1 sequence (P10721 26-976): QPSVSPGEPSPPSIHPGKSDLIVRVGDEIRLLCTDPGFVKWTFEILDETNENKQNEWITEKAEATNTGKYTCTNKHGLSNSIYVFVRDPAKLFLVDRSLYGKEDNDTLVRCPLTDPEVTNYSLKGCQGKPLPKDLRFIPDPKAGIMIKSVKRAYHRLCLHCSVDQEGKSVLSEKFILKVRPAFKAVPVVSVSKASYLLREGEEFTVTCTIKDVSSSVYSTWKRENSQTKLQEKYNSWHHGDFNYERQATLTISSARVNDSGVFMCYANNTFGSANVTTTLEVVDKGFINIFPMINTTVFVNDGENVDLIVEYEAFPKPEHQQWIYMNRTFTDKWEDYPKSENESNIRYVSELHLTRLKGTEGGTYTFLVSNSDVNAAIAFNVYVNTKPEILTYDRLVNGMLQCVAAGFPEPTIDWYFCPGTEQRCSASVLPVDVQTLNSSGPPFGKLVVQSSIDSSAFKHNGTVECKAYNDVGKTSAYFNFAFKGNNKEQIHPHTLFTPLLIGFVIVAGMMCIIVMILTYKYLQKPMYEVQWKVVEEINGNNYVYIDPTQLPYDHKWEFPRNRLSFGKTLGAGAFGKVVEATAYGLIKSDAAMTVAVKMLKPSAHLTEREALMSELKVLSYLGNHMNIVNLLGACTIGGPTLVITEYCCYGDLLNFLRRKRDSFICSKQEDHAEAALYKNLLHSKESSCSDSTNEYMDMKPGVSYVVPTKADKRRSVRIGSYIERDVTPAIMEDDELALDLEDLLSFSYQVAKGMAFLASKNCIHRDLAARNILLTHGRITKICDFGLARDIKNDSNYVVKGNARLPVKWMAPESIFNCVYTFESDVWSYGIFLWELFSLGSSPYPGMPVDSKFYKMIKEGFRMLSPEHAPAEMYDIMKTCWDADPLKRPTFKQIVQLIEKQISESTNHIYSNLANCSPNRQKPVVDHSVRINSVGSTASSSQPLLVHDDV
Experimental: A test compound was dissolved in dimethyl sulfoxide to make a 10 mM solution, which was stored in a dark place at 4° C. until use.
Protein tyrosine kinases (recombinant human kinases) used in the study were the following products from Carna Biosciences Inc. (Kobe, Japan).
VEGFR-1 (FLT 1) (product number: 08-189) VEGFR-3 (FLT 4) (product number: 08-190) RON (product number: 08-152) RET (product number: 08-159) KIT (product number: 08-156)
Kinase activity was measured in a mobility shift assay (MSA) method (J. Biomolecular Screening, 11, 359-368, 2006) using QuickScout Screening Assist™ (Carna Biosciences Inc., commercial kit), and enzyme-linked immunoassay (ELISA).
10 μl of the test substance solution obtained by dissolving or suspending in the assay buffer (15 mM Tris, 0.01% Tween 20, 2 mM DTT, pH 7.5) (4× final concentration), or 10 μl of a solvent (4% dimethyl sulfoxide-assay buffer) was dispensed into a DELFIA Streptavidin-coated clear plate (PerkinElmer Inc., product number 4009-0010). Then, 10 μl of an ATP/substrate/metal solution of QuickScout Screening Assist™ ELISA was added. Additionally, 20 μl of the kinase solution diluted with the assay buffer was added to initiate a reaction. For a blank, only 20 μl of the assay buffer was added. The assay method was in accordance with the protocol of QuickScout Screening Assist™ ELISA. After the reaction, the absorbance at 450 nm in each well was measured using SpectraMax (Molecular Devices, California, U.S.A).

Structure (SMILES)	IC50 [1] [µM]	IC50 (KIT) [µM]
CN1CCN(C2CCN(C(=O)Nc3cc(Oc4cc(F)c(NC(=O)C5(C(=O)Nc6ccc(F)cc6)CC5)cc4F)ccn3)CC2)CC1 [N-(2,5-Difluoro-4-{[2-({[4-(4-methylpiperazin-1-yl)piperidin-1-yl]carbonyl}amino)pyridin-4-yl]oxy}phenyl)-N′-(4-fluorophenyl)cyclopropane-1,1-dicarboxamide]	0.02	0.35
O=C(Nc1cc(Oc2cc(F)c(NC(=O)C3(C(=O)Nc4ccc(F)cc4)CC3)cc2F)ccn1)N1CC(O)C1 [N-{2,5-Difluoro-4-[(2-{[(3-hydroxyazetidin-1-yl)carbonyl]amino}pyridin-4-yl)oxy]phenyl}-N′-(4-fluorophenyl)cyclopropane-1,1-dicarboxamide]	0.015	0.37
O=C(Nc1cc(Oc2cc(F)c(NC(=O)C3(C(=O)Nc4ccc(F)cc4)CC3)cc2F)ccn1)N1CC(CO)C1 [N-(2,5-Difluoro-4-{[2-({[3-(hydroxymethyl)azetidin-1-yl]carbonyl}amino)pyridin-4-yl]oxy}phenyl)-N′-(4-fluorophenyl)cyclopropane-1,1-dicarboxamide]	0.0055	0.14
O=C(Nc1cc(Oc2ccc(NC(=O)C3(C(=O)Nc4ccc(F)cc4)CC3)c(F)c2)ccn1)N1CCC1 [N-[4-({2-[(Azetidin-1-ylcarbonyl)amino]pyridin-4-yl}oxy)-2-fluorophenyl]-N′-(4-fluorophenyl)cyclopropane-1,1-dicarboxamide]	0.038	0.38
CN1CCC(N(C)C(=O)Nc2cc(Oc3cc(F)c(NC(=O)C4(C(=O)Nc5ccc(F)cc5)CC4)cc3F)ccn2)CC1 [N-(2,5-Difluoro-4-{[2-({[methyl(1-methylpiperidin-4-yl)amino]carbonyl}amino)pyridin-4-yl]oxy}phenyl)-N′-(4-fluorophenyl)cyclopropane-1,1-dicarboxamide]	0.021	0.56
